Measured values taken from publication PMC10791936, “Engineering allosteric inhibition of homoserine dehydrogenase by semi-rational saturation mutagenesis screening” (Frontiers in Bioengineering and Biotechnology, 2024).
Values belong to the molecule of their own block, whether it stands above or below them.

What was measured:
CgHSD [1] = target: T1, CgHSD (Corynebacterium glutamicum, UniProt P08499, G378E); assay: enzyme activity inhibition, NADPH formation; type: biochemical; conditions: allosteric; 50 mM L-isoleucine; stated gain
T1 construct: gene hom; full-length hom in pET-28a, N-terminal His6 tag, expressed in E. coli Transetta (DE3), Ni purified; homotetramer by SEC

CgHSD [2] = target: T2, CgHSD (Corynebacterium glutamicum, UniProt P08499, I397V); assay: enzyme activity inhibition, NADPH formation; type: biochemical; conditions: allosteric; 50 mM L-isoleucine; stated gain
T2 construct: gene hom; full-length hom in pET-28a, N-terminal His6 tag, expressed in E. coli Transetta (DE3), Ni purified; homotetramer by SEC

CgHSD [3] = target: T3, CgHSD (Corynebacterium glutamicum, UniProt P08499, A384D); assay: enzyme activity inhibition, NADPH formation; type: biochemical; conditions: allosteric; 50 mM L-isoleucine; stated gain
T3 construct: gene hom; full-length hom in pET-28a, N-terminal His6 tag, expressed in E. coli Transetta (DE3), Ni purified; homotetramer by SEC

CgHSD [4] = target: T4, CgHSD (Corynebacterium glutamicum, UniProt P08499); assay: enzyme activity inhibition, NADPH formation; type: biochemical; conditions: feedback inhibitor, allosteric; 5 mM L-isoleucine
T4 construct: gene hom; full-length hom in pET-28a, N-terminal His6 tag, expressed in E. coli Transetta (DE3), Ni purified; homotetramer by SEC

CgHSD [5] = target: T1, CgHSD; assay: enzyme activity inhibition, NADPH formation; type: biochemical; conditions: allosteric; 50 mM L-threonine; stated gain
CgHSD [6] = target: T4, CgHSD; assay: enzyme activity inhibition, NADPH formation; type: biochemical; conditions: feedback inhibitor, allosteric; 1 mM L-threonine
CgHSD [7] = target: T2, CgHSD; assay: enzyme activity inhibition, NADPH formation; type: biochemical; conditions: allosteric; 10 mM L-threonine; stated gain
CgHSD [8] = target: T3, CgHSD; assay: enzyme activity inhibition, NADPH formation; type: biochemical; conditions: allosteric; 10 mM L-threonine; stated gain
[9] = target: the molecule itself; assay: SEC; apparent molecular mass from a standard curve; peaks at 11.8 mL of elution volume; column and buffer not shown (Supplementary Figure S2)

T1 sequence (P08499 whole entry G378E): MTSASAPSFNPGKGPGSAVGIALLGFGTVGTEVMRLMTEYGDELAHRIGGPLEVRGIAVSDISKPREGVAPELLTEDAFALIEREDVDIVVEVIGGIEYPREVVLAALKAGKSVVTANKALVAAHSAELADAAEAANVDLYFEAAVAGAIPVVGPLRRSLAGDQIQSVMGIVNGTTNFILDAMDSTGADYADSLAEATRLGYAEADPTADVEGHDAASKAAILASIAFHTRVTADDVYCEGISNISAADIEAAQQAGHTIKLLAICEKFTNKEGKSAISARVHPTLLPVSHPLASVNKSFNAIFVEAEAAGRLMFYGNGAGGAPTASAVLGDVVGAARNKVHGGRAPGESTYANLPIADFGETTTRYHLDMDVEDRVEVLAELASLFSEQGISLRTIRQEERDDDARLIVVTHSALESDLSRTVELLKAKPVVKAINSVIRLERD

% activity maintained at 50 mM (CgHSD [1]): 61.0%
% activity maintained at 50 mM (CgHSD [2]): 50.1%
% activity maintained at 50 mM (CgHSD [3]): 76.5%
% activity loss at 5 mM (CgHSD [4]): > 75%
Molecule: CC[C@H](C)[C@H](N)C(=O)O [L-isoleucine]

% retained activity at 50 mM (CgHSD [5]): 52.7%
% activity loss at 1 mM (CgHSD [6]): > 80%
% activity kept at 10 mM (CgHSD [7]): > 90%
% activity kept at 10 mM (CgHSD [8]): > 90%
Molecule: C[C@@H](O)[C@H](N)C(=O)O [L-threonine]

B1: Homoserine dehydrogenase from Corynebacterium glutamicum (CgHSD), wild type (enzyme, Corynebacterium glutamicum ATCC 13032, UniProt P08499 1-445, looked up)
chain: MTSASAPSFNPGKGPGSAVGIALLGFGTVGTEVMRLMTEYGDELAHRIGGPLEVRGIAVSDISKPREGVAPELLTEDAFALIEREDVDIVVEVIGGIEYPREVVLAALKAGKSVVTANKALVAAHSAELADAAEAANVDLYFEAAVAGAIPVVGPLRRSLAGDQIQSVMGIVNGTTNFILDAMDSTGADYADSLAEATRLGYAEADPTADVEGHDAASKAAILASIAFHTRVTADDVYCEGISNISAADIEAAQQAGHTIKLLAICEKFTNKEGKSAISARVHPTLLPVSHPLASVNKSFNAIFVEAEAAGRLMFYGNGAGGAPTASAVLGDVVGAARNKVHGGRAPGESTYANLPIADFGETTTRYHLDMDVEDRVGVLAELASLFSEQGISLRTIRQEERDDDARLIVVTHSALESDLSRTVELLKAKPVVKAINSVIRLERD
notes: Homoserine dehydrogenase (hom gene) of Corynebacterium glutamicum ATCC 13032, amplified from genomic DNA into pET-28a (pET-hom); printed mass of the monomer 46.4 kDa; also called wild-type CgHSD
stoichiometry N [9]: 4

B2: Homoserine dehydrogenase from Corynebacterium glutamicum (CgHSD), I397V mutant (enzyme, Corynebacterium glutamicum ATCC 13032, UniProt P08499 1-445, looked up)
chain: MTSASAPSFNPGKGPGSAVGIALLGFGTVGTEVMRLMTEYGDELAHRIGGPLEVRGIAVSDISKPREGVAPELLTEDAFALIEREDVDIVVEVIGGIEYPREVVLAALKAGKSVVTANKALVAAHSAELADAAEAANVDLYFEAAVAGAIPVVGPLRRSLAGDQIQSVMGIVNGTTNFILDAMDSTGADYADSLAEATRLGYAEADPTADVEGHDAASKAAILASIAFHTRVTADDVYCEGISNISAADIEAAQQAGHTIKLLAICEKFTNKEGKSAISARVHPTLLPVSHPLASVNKSFNAIFVEAEAAGRLMFYGNGAGGAPTASAVLGDVVGAARNKVHGGRAPGESTYANLPIADFGETTTRYHLDMDVEDRVGVLAELASLFSEQGISLRTVRQEERDDDARLIVVTHSALESDLSRTVELLKAKPVVKAINSVIRLERD
stoichiometry N [9]: 4

B3: Homoserine dehydrogenase from Corynebacterium glutamicum (CgHSD), A384D mutant (enzyme, Corynebacterium glutamicum ATCC 13032, UniProt P08499 1-445, looked up)
chain: MTSASAPSFNPGKGPGSAVGIALLGFGTVGTEVMRLMTEYGDELAHRIGGPLEVRGIAVSDISKPREGVAPELLTEDAFALIEREDVDIVVEVIGGIEYPREVVLAALKAGKSVVTANKALVAAHSAELADAAEAANVDLYFEAAVAGAIPVVGPLRRSLAGDQIQSVMGIVNGTTNFILDAMDSTGADYADSLAEATRLGYAEADPTADVEGHDAASKAAILASIAFHTRVTADDVYCEGISNISAADIEAAQQAGHTIKLLAICEKFTNKEGKSAISARVHPTLLPVSHPLASVNKSFNAIFVEAEAAGRLMFYGNGAGGAPTASAVLGDVVGAARNKVHGGRAPGESTYANLPIADFGETTTRYHLDMDVEDRVGVLAELDSLFSEQGISLRTIRQEERDDDARLIVVTHSALESDLSRTVELLKAKPVVKAINSVIRLERD
stoichiometry N [9]: 4
